The source of these data is patent US20240182503A1, “MACROCYCLE COMPLEMENT FACTOR B INHIBITORS” (priority 2021, published 2024).

Where two headings read alike, the source gives them in different places.

For data set [1] the following is noted: rcm bond, DCM.
The target in the next data set is CVF-Bb complex (Homo sapiens (Human), UniProt P00751). In words: biochemical. The class given is biochemical. The settings on record: read-out: IC50. The procedure:
CVF-Bb complex, prepared from purified cobra venom factor, (3 nM) is incubated with a compound of the disclosure at various concentrations for 10 minutes at room temperature in PBS (pH 7.4) containing 10 mM MgCl2 and 0.05% (w/v) CHAPS. Human Complement C3 substrate is added to a final concentration of 1 μM. After 1 hour incubation at room temperature, the enzyme reaction is stopped by addition of a cocktail of concentrated pan-protease inhibitors. The product of the reaction, C3a, is quantified by means of an enzyme-linked-immunosorbent assay and/or denaturing gel electrophoresis (SDS-PAGE). IC50 values are calculated from percentage of inhibition of CVF-Bb activity as a function of test compound concentration.

In the case of `C=CCCCOc1cc(Br)ccc1[C@@H]1C[C@@H](O)CCN1C(=O)OCc1ccccc1`, the ring closure, isolated yield in data set [1] (the molecule shown is the open-chain precursor, 13-membered ring, Grubbs I (5 mol%), 1.75 mM, 25.0 °C) turned out to be 76.4%.
Molecule `CC(C)(C)OC(=O)N1CCC2(O)CC=CCCCCOc3cc(Br)ccc3[C@@H]1C2` showed a ring closure, isolated yield in data set [1] (from C=CCCCCOc1cc(Br)ccc1[C@@H]1CC(O)(CC=C)CCN1C(=O)OC(C)(C)C, 13-membered ring, Grubbs I, 2.5 mM, 25.0 °C, 48.0 h) of 65.9%.
In data set [1] (from C=CCCOc1cc(C(=O)OC)ccc1[C@@H]1C[C@@H](OCC=C)CCN1C(=O)OC(C)(C)C, 12-membered ring, Grubbs I (20 mol%), 2.22 mM, 25.0 °C, 18.0 h), `COC(=O)c1ccc2c(c1)OCCC=CCO[C@H]1CCN(C(=O)OC(C)(C)C)[C@H]2C1` came in with a ring closure, isolated yield of 61.9%.
Take `COC(=O)c1ccc2c(c1)OCCCC=CCO[C@H]1CCN(C(=O)OC(C)(C)C)[C@H]2C1`: the ring closure, isolated yield in data set [1] (from C=CCCCOc1cc(C(=O)OC)ccc1[C@@H]1C[C@@H](OCC=C)CCN1C(=O)OC(C)(C)C, 13-membered ring, Grubbs I (20 mol%), 2.22 mM, 25.0 °C, 18.0 h) turned out to be 68.8%.
As to `COC(=O)c1ccc2c(c1)OCCCCC=CCO[C@H]1CCN(C(=O)OC(C)(C)C)[C@H]2C1`, the ring closure, isolated yield turned out to be 72.4% in data set [1] (from C=CCCCCOc1cc(C(=O)OC)ccc1[C@@H]1C[C@@H](OCC=C)CCN1C(=O)OC(C)(C)C, 14-membered ring, Grubbs I (20 mol%), 2.15 mM, 25.0 °C, 18.0 h) and 83.2% in data set [1] (from C=CCCCCOc1cc(C(=O)OC)ccc1[C@@H]1C[C@@H](OCC=C)CCN1C(=O)OC(C)(C)C, 14-membered ring, Grubbs I (20 mol%), 2.17 mM, 25.0 °C, 18.0 h).
`COC(=O)c1ccc2c3cc(ccc13)OCC=CCO[C@H]1CCN(C(=O)OC(C)(C)C)[C@H]2C1` gave a ring closure, isolated yield in data set [1] (from C=CCOc1ccc2c(C(=O)OC)ccc([C@@H]3C[C@@H](OCC=C)CCN3C(=O)OC(C)(C)C)c2c1, 13-membered ring, Grubbs I, 2.1 mM, 25.0 °C, 18.0 h) of 67.1%.
`COC(=O)c1ccc2c3cc(ccc13)OCCC=CCO[C@H]1CCN(C(=O)OC(C)(C)C)[C@H]2C1` gave a ring closure, isolated yield in data set [1] (from C=CCCOc1ccc2c(C(=O)OC)ccc([C@@H]3C[C@@H](OCC=C)CCN3C(=O)OC(C)(C)C)c2c1, 14-membered ring, Grubbs I, 3.2 mM, 16.0 h) of 33.4%.
As to `COC(=O)c1ccc2c3cc(ccc13)OCCCC=CCO[C@@H]1CCN(C(=O)OC(C)(C)C)[C@@H]2C1`, the ring closure, isolated yield in data set [1] (from C=CCCCOc1ccc2c(C(=O)OC)ccc([C@H]3C[C@H](OCC=C)CCN3C(=O)OC(C)(C)C)c2c1, 15-membered ring, Grubbs I, 1.96 mM, 25.0 °C, 18.0 h) was 74%.
On to `COC(=O)c1ccc2c3cc(ccc13)OCCCC=CCO[C@H]1CCN(C(=O)OC(C)(C)C)[C@H]2C1`, for which the ring closure, isolated yield turned out to be 75.3% in data set [1] (from C=CCCCOc1ccc2c(C(=O)OC)ccc([C@@H]3C[C@@H](OCC=C)CCN3C(=O)OC(C)(C)C)c2c1, 15-membered ring, Grubbs I, 1.95 mM, 25.0 °C, 18.0 h) and 22.7% in data set [1] (from C=CCCCOc1ccc2c(C(=O)OC)ccc([C@@H]3C[C@@H](OCC=C)CCN3C(=O)OC(C)(C)C)c2c1, 15-membered ring, Grubbs I, 2.0 mM, 25.0 °C, 18.0 h).
The IC50 is the point on the concentration scale where inhibition reaches its midpoint. As to `COc1cc(C)c2[nH]ccc2c1CN1CC[C@H]2C[C@H]1c1ccc(C(=O)NS(=O)(=O)c3ccccc3)cc1OCCCCCO2` [Ex. 70, (1^2S,1^4S)-1^1-((5-methoxy-7-methyl-1H-indol-4-yl)methyl)-N-(phenylsulfonyl)-3,9-dioxa-1(2,4)-piperidina-2(1,2)-benzenacyclononaphane-2^4-carboxamide], at CVF-Bb complex, the IC50 worked out at 543 nM.
Same read-out and setting: the result for `COc1cc(C)c2[nH]ccc2c1CN1CC[C@H]2C[C@H]1c1ccc(C(=O)NS(C)(=O)=O)cc1CCCCCCCO2` [Ex. 71, (1^2S,1^4S)-1^1-((5-methoxy-7-methyl-1H-indol-4-yl)methyl)-N-(methylsulfonyl)-10-oxa-1(2,4)-piperidina-2(1,2)-benzenacyclodecaphane-2^4-carboxamide] reads 258 nM.
Still for that read-out and setting: the result for `COc1cc(C)c2[nH]ccc2c1CN1CC[C@H]2C[C@H]1c1ccc(C(=O)O)cc1CCCCCCCCCO2` [Ex. 72, (1^2S,1^4S)-1^1-((5-methoxy-7-methyl-1H-indol-4-yl)methyl)-12-oxa-1(2,4)-piperidina-2(1,2)-benzenacyclododecaphane-2^4-carboxylic acid] reads 129 nM.
As to `COc1cc(C)c2[nH]ccc2c1CN1CC[C@H]2C[C@H]1c1ccc(C(=O)O)cc1/C=C/CCCCCCCO2` [Ex. 73, (1^2S,1^4S,Z)-1^1-((5-methoxy-7-methyl-1H-indol-4-yl)methyl)-12-oxa-1(2,4)-piperidina-2(1,2)-benzenacyclododecaphan-3-ene-2^4-carboxylic acid], on CVF-Bb complex, the IC50 turned out to be 271 nM.
Still for that read-out and setting: to `COc1cc(C)c2[nH]ccc2c1CN1CC[C@H]2C[C@H]1c1ccc(-c3nnn[nH]3)cc1OCCCCCCO2` [Ex. 74, (1^2S,1^4S)-1^1-((5-methoxy-7-methyl-1H-indol-4-yl)methyl)-2^4-(1H-tetrazol-5-yl)-3,10-dioxa-1(2,4)-piperidina-2(1,2)-benzenacyclodecaphane] belongs 1250 nM; to `COc1cc(C)c2[nH]ccc2c1CN1CC[C@H]2C[C@H]1c1ccc(C(=O)O)c3ccc(cc13)OC/C=C\CO2` [Ex. 75, (1^2S,1^4S,Z)-1′-((5-methoxy-7-methyl-1H-indol-4-yl)methyl)-3,8-dioxa-1(2,4)-piperidina-2(1,7)-naphthalenacyclooctaphan-5-ene-2^4-carboxylic acid], 352 nM.
Same read-out and setting: to `COc1cc(C)c2[nH]ccc2c1CN1CC[C@H]2C[C@H]1c1ccc(C(=O)O)c3ccc(cc13)OCC/C=C/CO2` [Ex. 76, (1^2S,1^4S)-1^1-((5-methoxy-7-methyl-1H-indol-4-yl)methyl)-3,9-dioxa-1(2,4)-piperidina-2(1,7)-naphthalenacyclononaphane-2^4-carboxylic acid] belongs 251 nM; to `COc1cc(C)c2[nH]ccc2c1CN1CC[C@@H]2CCCCCCCOc3cc(C(=O)O)ccc3[C@@H]1C2` [Ex. 77, (1^2S,1^4S)-1^1-((5-methoxy-7-methyl-1H-indol-4-yl)methyl)-3-oxa-1(2,4)-piperidina-2(1,2)-benzenacyclodecaphane-2^4-carboxylic acid], 85.6 nM.
Still for that read-out and setting: to `COc1cc(C)c2[nH]ccc2c1CN1CC[C@H]2CCCCCCCOc3cc(C(=O)O)ccc3[C@@H]1C2` [Ex. 78, (1^2S,1^4R)-1^1-((5-methoxy-7-methyl-1H-indol-4-yl)methyl)-3-oxa-1(2,4)-piperidina-2(1,2)-benzenacyclodecaphane-2^4-carboxylic acid] belongs 731 nM; to `CNS(=O)(=O)c1ccc2c(c1)OCCCCCCO[C@H]1CCN(Cc3c(OC)cc(C)c4[nH]ccc34)[C@H]2C1` [Ex. 79, (1^2S,1^4S)-1^1-((5-methoxy-7-methyl-1H-indol-4-yl)methyl)-N-methyl-3,10-dioxa-1(2,4)-piperidina-2(1,2)-benzenacyclodecaphane-2^4-sulfonamide], above 10000 nM.
With “(1^2S,1^4S)-N-(ethylsulfonyl)-1^1-((5-methoxy-7- methyl-1H-indol-4-yl)methyl)-3,10-dioxa- 1(2,4)-piperidina-2(1,2)- benzenacyclodecaphane-2^4-carboxamide [Ex. 45]”, the IC50 at CVF-Bb complex amounted to 396 nM.
On the same count and under the same terms, to “(1^2S,1^4S,E)-1^1-((5-methoxy-7-methyl-1H-indol-4-yl)methyl)-3,10-dioxa-1(2,4)-piperidina-2(1,7)-naphthalenacyclodecaphan-7-ene-2^4-carboxylic acid [Ex. 53]” belongs above 10000 nM.
